Laboratory results reported in the NIST ThermoML archive (doi:10.1016/j.fluid.2014.09.015).
± gives the expanded uncertainty stated by the source.

Details: Liquid, Closed cell (Static) method

CC(O)CO (stereo not given) [1,2-propanediol]
Details | vapor or sublimation pressure [kPa]
350.15 K | 0.84 ± 0.023
355.15 K | 1.131 ± 0.031
360.15 K | 1.506 ± 0.037
365.15 K | 1.987 ± 0.045
370.15 K | 2.596 ± 0.049
375.15 K | 3.361 ± 0.031
380.15 K | 4.316 ± 0.039
385.15 K | 5.496 ± 0.047
390.15 K | 6.946 ± 0.051
395.15 K | 8.715 ± 0.052
400.15 K | 10.86 ± 0.067
405.15 K | 13.44 ± 0.074
410.15 K | 16.53 ± 0.062
415.15 K | 20.22 ± 0.068
420.15 K | 24.59 ± 0.082
